Patent publication US20230265151A1, “GIP/GLP1 CO-AGONIST COMPOUNDS” (priority 2020, published 2023)
Where two headings read alike, the source gives them in different places.

Key:
Assay type in all cases: cell-based
[1] = target: T1, hGIPR (Homo sapiens, UniProt P48546); test: Functional cAMP formation (HTRF) in HEK-293 clonal cells expressing hGIPR, 0.1% bovine casein, without or with 1.0% human serum albumin; details: for Emax: 37° C., 0.1% bovine casein, arithmetic mean; for EC50: cAMP, incubated at 37° C., 0.1% bovine casein (no human serum albumin), geometric mean
T1 construct: expressed in transfected cells
T1 sequence (P48546 22-466): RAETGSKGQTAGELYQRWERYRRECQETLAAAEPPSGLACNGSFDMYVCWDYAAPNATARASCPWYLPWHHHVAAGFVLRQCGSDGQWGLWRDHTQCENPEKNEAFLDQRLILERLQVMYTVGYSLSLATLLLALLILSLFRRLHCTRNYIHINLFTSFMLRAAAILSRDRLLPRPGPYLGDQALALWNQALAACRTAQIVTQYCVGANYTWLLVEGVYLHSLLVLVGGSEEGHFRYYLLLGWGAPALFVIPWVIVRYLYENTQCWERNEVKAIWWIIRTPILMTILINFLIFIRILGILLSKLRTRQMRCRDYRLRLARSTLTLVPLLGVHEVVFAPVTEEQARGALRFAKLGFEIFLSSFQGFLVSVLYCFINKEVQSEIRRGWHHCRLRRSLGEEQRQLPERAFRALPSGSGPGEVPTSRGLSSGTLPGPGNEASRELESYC
How it was run: (§1)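 Cells were stimulated with peptide for 30 min at 37° C, then intracellular cAMP was measured by competitive HTRF (665/620 nm ratio) and converted to nM using a cAMP standard curve. Relative EC50 and Emax came from four-parameter logistic fits of percent maximal response against peptide concentration.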

[2] = target: T2, hGCGR (Homo sapiens, UniProt P47871); test: Functional cAMP formation (HTRF) in HEK-293 clonal cells expressing hGCGR, 0.1% bovine casein, without or with 1.0% human serum albumin; details: cAMP, incubated at 37° C., 0.1% bovine casein (no human serum albumin), geometric mean
T2 construct: expressed in transfected cells
T2 sequence (P47871 26-477): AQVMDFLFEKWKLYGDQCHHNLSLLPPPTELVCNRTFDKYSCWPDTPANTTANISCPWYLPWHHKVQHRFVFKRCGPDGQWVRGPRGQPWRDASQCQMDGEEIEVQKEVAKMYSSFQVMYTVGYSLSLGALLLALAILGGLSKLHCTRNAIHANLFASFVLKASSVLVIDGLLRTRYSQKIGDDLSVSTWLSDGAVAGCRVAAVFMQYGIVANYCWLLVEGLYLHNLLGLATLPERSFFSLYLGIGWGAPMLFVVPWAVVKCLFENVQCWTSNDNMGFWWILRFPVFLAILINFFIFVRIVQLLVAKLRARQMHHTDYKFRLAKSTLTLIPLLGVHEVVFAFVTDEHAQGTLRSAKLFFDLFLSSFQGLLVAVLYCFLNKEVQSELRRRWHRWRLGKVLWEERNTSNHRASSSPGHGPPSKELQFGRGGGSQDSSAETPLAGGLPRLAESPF
How it was run: as §1

[3] = target: hGLP-1R (Homo sapiens, UniProt P43220); test: Functional cAMP formation (HTRF) in HEK-293 clonal cells expressing hGLP-1R, 0.1% bovine casein, without or with 1.0% human serum albumin; design: expressed in transfected cells; details: for EC50: hGLP-1R EC50, nM (SEM, n), cAMP, incubated at 37° C., 0.1% bovine casein (no human serum albumin), geometric mean; for Emax: 37° C., 0.1% bovine casein, arithmetic mean
Chain of hGLP-1R (P43220 24-463): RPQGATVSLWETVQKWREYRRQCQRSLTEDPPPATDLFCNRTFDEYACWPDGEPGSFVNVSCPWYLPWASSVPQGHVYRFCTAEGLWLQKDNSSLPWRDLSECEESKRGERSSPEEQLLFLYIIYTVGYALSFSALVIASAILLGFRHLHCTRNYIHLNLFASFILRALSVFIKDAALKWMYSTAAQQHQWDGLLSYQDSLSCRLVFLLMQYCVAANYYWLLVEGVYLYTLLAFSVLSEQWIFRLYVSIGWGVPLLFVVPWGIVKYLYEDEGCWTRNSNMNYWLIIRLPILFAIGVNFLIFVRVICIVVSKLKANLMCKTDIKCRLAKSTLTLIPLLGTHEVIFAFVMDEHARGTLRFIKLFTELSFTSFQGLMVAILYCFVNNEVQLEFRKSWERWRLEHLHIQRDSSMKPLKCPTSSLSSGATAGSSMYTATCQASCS
How it was run: as §1

[4] = HEK293, read-out: hGIPR Emax, % ± SEM, percent of maximal response to GIP(1-42)NH2
[5] = HEK293, read-out: hGLP-1R Emax, % ± SEM, percent of maximal response to GLP-1(7-36)NH2

SMILES | Emax [1, 4] [%] | EC50 ([1]; hGIPR EC50, nM (SEM, n)) [nM] | EC50 ([2]; hGCGR EC50, nM (SEM, n)) [nM] | EC50 [3] [nM] | Emax [3, 5] [%] | Emax ([1]; HEK293, percent of maximal response to GIP(1-42)NH2, read-out: hGIPR Emax, % ± SEM) [%] | EC50 ([1]; read-out: hGIPR EC50, nM (SEM, n)) [nM] | EC50 ([2]; read-out: hGCGR EC50, nM (SEM, n)) [nM] | Emax ([3]; HEK293, percent of maximal response to GLP-1(7-36)NH2, read-out: hGLP-1R Emax, % ± SEM) [%]
CC[C@H](C)[C@H](NC(=O)[C@H](CC(C)C)NC(=O)[C@](C)(Cc1ccccc1)NC(=O)[C@H](CCCCNC(=O)COCCOCCNC(=O)COCCOCCNC(=O)CC[C@H](NC(=O)CCCCCCCCCCCCC(=O)O)C(=O)O)NC(=O)[C@@H](NC(=O)[C@](C)(Cc1ccccc1)NC(=O)[C@H](CCC(=O)O)NC(=O)C(C)(C)NC(=O)[C@H](CCC(N)=O)NC(=O)[C@H](C)NC(=O)[C@H](CCCCNC(=O)COCCOCCNC(=O)COCCOCCNC(=O)CC[C@H](NC(=O)CCCCCCCCCCCCC(=O)O)C(=O)O)NC(=O)[C@H](CCCN)NC(=O)[C@H](CC(=O)O)NC(=O)[C@H](CC(C)C)NC(=O)[C@](C)(CC(C)C)NC(=O)[C@@H](NC(=O)C(C)(C)NC(=O)[C@H](Cc1ccncc1)NC(=O)[C@H](CC(=O)O)NC(=O)[C@H](CO)NC(=O)[C@@H](NC(=O)[C@](C)(Cc1ccccc1F)NC(=O)[C@@H](NC(=O)CNC(=O)[C@H](CCC(=O)O)NC(=O)C(C)(C)NC(=O)[C@@H](N)Cc1ccc(O)cc1)[C@@H](C)O)[C@@H](C)O)[C@@H](C)CC)[C@@H](C)CC)C(=O)N[C@@H](CCC(=O)O)C(=O)NCC(=O)NCC(=O)N1CCC[C@H]1C(=O)N[C@@H](CO)C(=O)N[C@@H](CO)C(=O)NCC(=O)N[C@@H](C)C(=O)N1CCC[C@H]1C(=O)N1CCC[C@H]1C(=O)N1CCC[C@H]1C(=O)N[C@@H](CO)C(N)=O [Example 121] | 92.8 | 0.0271 | > 9950 | 8.95 |  |  |  |  | 
CC[C@H](C)[C@H](NC(=O)[C@H](CC(C)C)NC(=O)[C@](C)(Cc1ccccc1)NC(=O)[C@H](CCCCNC(=O)COCCOCCNC(=O)COCCOCCNC(=O)CC[C@H](NC(=O)CCCCCCCCCCCCC(=O)O)C(=O)O)NC(=O)[C@@H](NC(=O)[C@](C)(Cc1ccccc1)NC(=O)[C@H](CCC(=O)O)NC(=O)C(C)(C)NC(=O)[C@H](CCC(N)=O)NC(=O)[C@H](C)NC(=O)[C@H](CCCCNC(=O)COCCOCCNC(=O)COCCOCCNC(=O)CC[C@H](NC(=O)CCCCCCCCCCCCC(=O)O)C(=O)O)NC(=O)[C@H](CCCN)NC(=O)[C@H](CC(=O)O)NC(=O)[C@H](CC(C)C)NC(=O)[C@](C)(CC(C)C)NC(=O)[C@@H](NC(=O)[C@H](CO)NC(=O)[C@@H](NC(=O)[C@H](CC(=O)O)NC(=O)[C@H](CO)NC(=O)[C@@H](NC(=O)[C@](C)(Cc1ccccc1F)NC(=O)[C@@H](NC(=O)CNC(=O)[C@H](CCC(=O)O)NC(=O)C(C)(C)NC(=O)[C@@H](N)Cc1ccc(O)cc1)[C@@H](C)O)[C@@H](C)O)C(C)C)[C@@H](C)CC)[C@@H](C)CC)C(=O)N[C@@H](CCC(=O)O)C(=O)NCC(=O)NCC(=O)N1CCC[C@H]1C(=O)N[C@@H](CO)C(=O)N[C@@H](CO)C(=O)NCC(=O)N[C@@H](C)C(=O)N1CCC[C@H]1C(=O)N1CCC[C@H]1C(=O)N1CCC[C@H]1C(=O)N[C@@H](CO)C(N)=O [Example 122] |  | 0.064 | > 9950 |  | 94.3 |  |  |  | 
CC[C@H](C)[C@H](NC(=O)[C@H](CC(C)C)NC(=O)[C@](C)(Cc1ccccc1)NC(=O)[C@H](CCCCNC(=O)COCCOCCNC(=O)COCCOCCNC(=O)CC[C@H](NC(=O)CCCCCCCCCCCCC(=O)O)C(=O)O)NC(=O)[C@@H](NC(=O)[C@](C)(Cc1ccccc1)NC(=O)[C@H](CCC(=O)O)NC(=O)C(C)(C)NC(=O)[C@H](CCC(N)=O)NC(=O)[C@H](C)NC(=O)[C@H](CCCCNC(=O)COCCOCCNC(=O)COCCOCCNC(=O)CC[C@H](NC(=O)CCCCCCCCCCCCC(=O)O)C(=O)O)NC(=O)[C@H](CCCN)NC(=O)[C@H](CC(=O)O)NC(=O)[C@H](CC(C)C)NC(=O)[C@](C)(CC(C)C)NC(=O)[C@@H](NC(=O)C(C)(C)NC(=O)[C@@H](NC(=O)[C@H](CC(=O)O)NC(=O)[C@H](CO)NC(=O)[C@@H](NC(=O)[C@](C)(Cc1ccccc1F)NC(=O)[C@@H](NC(=O)CNC(=O)[C@H](CCC(=O)O)NC(=O)C(C)(C)NC(=O)[C@@H](N)Cc1ccc(O)cc1)[C@@H](C)O)[C@@H](C)O)C(C)C)[C@@H](C)CC)[C@@H](C)CC)C(=O)N[C@@H](CCC(=O)O)C(=O)NCC(=O)NCC(=O)N1CCC[C@H]1C(=O)N[C@@H](CO)C(=O)N[C@@H](CO)C(=O)NCC(=O)N[C@@H](C)C(=O)N1CCC[C@H]1C(=O)N1CCC[C@H]1C(=O)N1CCC[C@H]1C(=O)N[C@@H](CO)C(N)=O [Example 123] | 94.9 |  | > 9950 | 0.508 | 96.3 |  |  |  | 
CC[C@H](C)[C@H](NC(=O)[C@H](CC(C)C)NC(=O)[C@](C)(Cc1ccc(O)cc1)NC(=O)[C@@H](CCC(=O)O)NC(=O)[C@@H](NC(=O)[C@H](Cc1ccccc1)NC(=O)[C@H](CCC(=O)O)NC(=O)C(C)(C)NC(=O)[C@H](CCC(N)=O)NC(=O)[C@H](C)NC(=O)[C@H](CCCCNC(=O)COCCOCCNC(=O)COCCOCCNC(=O)CC[C@H](NC(=O)CCCCCCCOc1ccc(C(=O)O)cc1)C(=O)O)NC(=O)[C@H](CCCN)NC(=O)[C@H](CC(=O)O)NC(=O)[C@H](CC(C)C)NC(=O)[C@](C)(CC(C)C)NC(=O)[C@@H](NC(=O)[C@H](CO)NC(=O)[C@H](Cc1ccncc1)NC(=O)[C@H](CC(=O)O)NC(=O)[C@H](CO)NC(=O)[C@@H](NC(=O)[C@](C)(Cc1ccccc1F)NC(=O)[C@@H](NC(=O)CNC(=O)[C@H](CCC(=O)O)NC(=O)C(C)(C)NC(=O)[C@@H](N)Cc1ccc(O)cc1)[C@@H](C)O)[C@@H](C)O)[C@@H](C)CC)[C@@H](C)CC)C(=O)N[C@@H](CCC(=O)O)C(=O)NCC(=O)NCC(=O)N[C@@H](CCCCNC(=O)COCCOCCNC(=O)COCCOCCNC(=O)CC[C@H](NC(=O)CCCCCCCOc1ccc(C(=O)O)cc1)C(=O)O)C(=O)N[C@@H](CO)C(=O)N[C@@H](CO)C(=O)NCC(=O)N[C@@H](C)C(=O)N1CCC[C@H]1C(=O)N1CCC[C@H]1C(=O)N1CCC[C@H]1C(=O)N[C@@H](CO)C(N)=O [Example 126] | 91.8 |  | > 9950 | 1.69 |  |  |  |  | 
CC[C@H](C)[C@H](NC(=O)[C@H](CC(C)C)NC(=O)[C@](C)(Cc1ccc(O)cc1)NC(=O)[C@@H](CCC(=O)O)NC(=O)[C@@H](NC(=O)[C@H](Cc1ccccc1)NC(=O)[C@H](CCC(=O)O)NC(=O)C(C)(C)NC(=O)[C@H](CCC(N)=O)NC(=O)[C@H](C)NC(=O)[C@H](CCCCNC(=O)COCCOCCNC(=O)COCCOCCNC(=O)CC[C@H](NC(=O)CCCc1ccc(C(C)(C)C)cc1)C(=O)O)NC(=O)[C@H](CCCN)NC(=O)[C@H](CC(=O)O)NC(=O)[C@H](CC(C)C)NC(=O)[C@](C)(CC(C)C)NC(=O)[C@@H](NC(=O)[C@H](CO)NC(=O)[C@H](CCCCNC(=O)COCCOCCNC(=O)COCCOCCNC(=O)CC[C@H](NC(=O)CCCc1ccc(C(C)(C)C)cc1)C(=O)O)NC(=O)[C@H](CC(=O)O)NC(=O)[C@H](CO)NC(=O)[C@@H](NC(=O)[C@](C)(Cc1ccccc1F)NC(=O)[C@@H](NC(=O)CNC(=O)[C@H](CCC(=O)O)NC(=O)C(C)(C)NC(=O)[C@@H](N)Cc1ccc(O)cc1)[C@@H](C)O)[C@@H](C)O)[C@@H](C)CC)[C@@H](C)CC)C(=O)N[C@@H](CCC(=O)O)C(=O)NCC(=O)NCC(=O)N1CCC[C@H]1C(=O)N[C@@H](CO)C(=O)N[C@@H](CO)C(=O)NCC(=O)N[C@@H](C)C(=O)N1CCC[C@H]1C(=O)N1CCC[C@H]1C(=O)N1CCC[C@H]1C(=O)N[C@@H](CO)C(N)=O [Example 130] |  |  |  |  |  | 94.7 ± 4.51 | 0.0266 | > 9950 | 100 ± 1.69
